Data taken from US8771944B2, “Use of micro-RNA as a biomarker of immunomodulatory drug activity” (Celgene Corporation, priority 2007, dated 2014).

Legend:
[1] = tested on: CD34+ hematopoietic precursor cells; experiment: miRNA differential expression profiling (Ambion Bioarrays) in CD34+ cells; type: cell-based; conditions: CD34+ hematopoietic precursor model
Source text: A CD34^+ hematopoietic precursor cell line was utilized to examine miRNA biomarker expression upon treatment with an immunomodulatory compound. CD34^+ cells used in preclinical studies were purchased from a commercial supplier (Lonza), isolated by positive immunomagnetic selection from bone marrow. In clinical studies, CD34^+ cells can be purified by positive immunomagnetic selection or by flow cytometric immunosorting from bone marrow or peripheral blood using conventional methodologies.
CD34^+ cells were expanded for 6 days in Iscove's DMEM media (Invitrogen) with 20% BIT serum substitute (StemCell Technologies) in the presence of SCF (100 ng/ml), Flt-3 ligand (100 ng/ml), and IL-3 (20 ng/ml) and then differentiated for 6 days in Iscove's/20% BIT containing SCF (50 ng/ml) and erythropoietin (2 U/ml) in the presence of 0.1% DMSO, 1 or 10 uM the immunomodulatory compound. Cells were grown in tissue culture and treated with the immunomodulatory compound according to methods known in the art. […]
The expression array method detected two miRNAs that were regulated by administration of immunomodulatory agents in the CD34^+ hematopoietic precursor model.

Namalwa cells [2] = experiment: miRNA expression profile / qRT-PCR of miR-143 and miR-145 in Namalwa cells; type: cell-based; conditions: 10 μM, 6 or 24 hours, FIG. 2
Procedure: An experiment similar to described above in Sections 6.1-6.5 was performed with a Namalwa lymphoma cell line model. The Namalwa Burkitt's lymphoma cell line was purchased from ATCC and grown in RPMI with 10% fetal bovine serum according to standard tissue culture methods known in the art.
Namalwa cells grown as above were treated for 6 or 24 hours with either 0.1% DMSO, 10 μM 1,3-dioxo-2-(2,6-dioxopiperidin-3-yl)-4-aminoisoindoline, or the HDAC inhibitor TSA 1 μM. Cells were harvested at indicated times and then miRNA was purified as outlined in previous sections.
miRNA expression profiles in Namalwa cells treated with immunomodulatory compounds were generated using methods similar to that described in Section 6.3.
Levels of miR-145 and miR-143 were determined using qRT-PCR. Purified miRNA was analyzed using a TaqmanR microRNA expression assay (Applied Biosystems). Five ng of purified miRNA was subjected to qRT-PCR with TaqmanR miRNA assays for miR-143 and miR-145 according to manufacturers instructions. The procedure may be achieved by using miRNA reverse transcription and PCR primers with standard buffers, reagents, and methods.

CD34+ cells = experiment: qRT-PCR of miR-130a and miR-146b in CD34+ cell cultures; type: cell-based; conditions: 6 days, 1 or 10 μm
Procedure: CD34^+ cells were expanded for 6 days in Iscove's DMEM media (Invitrogen) with 20% BIT serum substitute (StemCell Technologies) in the presence of SCF (100 ng/ml), Flt-3 ligand (100 ng/ml), and IL-3 (20 ng/ml) and then differentiated for 6 days in Iscove's/20% BIT containing SCF (50 ng/ml) and erythropoietin (2 U/ml) in the presence of 0.1% DMSO, 1 or 10 uM the immunomodulatory compound. Cells were grown in tissue culture and treated with the immunomodulatory compound according to methods known in the art.
To quantitate selected miRNAs with qRT-PCR, purified miRNA was analyzed using a TaqmanR microRNA Assay (Applied Biosystems). Five ng of purified miRNA was subjected to qRT-PCR with TaqmanR miRNA assay according to manufacturers instructions. Alternatively, the procedure may be achieved by using miRNA-specific reverse transcription and PCR primers with standard buffers, reagents, and methods.
Levels of miR-130a and miR-146b were determined using qRT-PCR as described above.

[3] = cited from earlier work
H929 cells = experiment: Agilent miRNA array v2, lenalidomide-treated H929 cells; type: cell-based, human; conditions: for miR-204 Fold Increase / miR-424 Fold Increase / miR-503 Fold Increase: H929 cells
Procedure: (§1) Additional assays were performed to determine the effects of lenalidomide (1-oxo-2-(2,6-dioxopiperidin-3-yl)-4-aminoisoindoline) administration to various cell cultures on the expression of miRNAs. The miRNAs were detected using the Agilent miRNA array v2, which contains probes for 760 human miRNAs. […] was isolated using the Qiagen miRNeasy kit, total RNA (100 ng) was dephosphorylated and ligated with pCp-Cy3. Labeled RNA was purified and hybridized to Agilent miRNA arrays.

HL60 cells = experiment: Agilent miRNA array v2, lenalidomide-treated HL60 cells; type: cell-based, human; conditions: for miR-99b Fold Increase / miR-125a Fold Increase / miR-143 Fold Increase / miR-145 Fold Increase / miR-146b Fold Increase: HL-60 cells
Procedure: as §1
HL60 cells: The addition of lenalidomide (1-oxo-2-(2,6-dioxopiperidin-3-yl)-4-aminoisoindoline) to a cell culture from an acute myelogenous leukemia (AML) cell line (HL60) was also shown to upregulate a number of miRNAs.

Namalwa cells [4] = experiment: Agilent miRNA array v2, lenalidomide-treated Namalwa cells; type: cell-based, human; conditions: for miR-143 Fold Increase / miR-145 Fold Increase: Namalwa cells
Procedure: as §1
Namalwa cells: Lenalidomide was added to Namalwa cells at a concentration of 0.1 μm, 1 μm, or 10 μm. The miRNA levels were measured at 24 and 48 hours after addition of the lenalidomide. The results with this array confirmed the upregulation of miR-143 and miR-145 in Namalwa cells in a dose-dependent response to administration of 1-oxo-2-(2,6-dioxopiperidin-3-yl)-4-aminoisoindoline (Table 2).

[5] = 24 hour treatment, Lenalidomide 0.1 uM
[6] = 24 hour treatment, Lenalidomide 1.0 uM
[7] = 24 hour treatment, Lenalidomide 10.0 uM
[8] = 48 hour treatment, Lenalidomide 0.1 uM
[9] = 48 hour treatment, Lenalidomide 1.0 uM
[10] = 48 hour treatment, Lenalidomide 10.0 uM
[11] = H929 multiple myeloma cell line, 24 and 48 hours
[12] = HL60 acute myelogenous leukemia cell line
[13] = HL60 cells, dose dependent manner at both 24 and 48 hours
[14] = Namalwa cells, 0.1, 1 or 10 μm, 24 and 48 hours, dose-dependent response
[15] = 24 hour treatment, 0.1 uM lenalidomide
[16] = 24 hour treatment, 1 uM lenalidomide
[17] = 24 hour treatment, 10 uM lenalidomide
[18] = 48 hour treatment, 0.1 uM lenalidomide
[19] = 48 hour treatment, 1 uM lenalidomide

SMILES: Nc1cccc2c1C(=O)N(C1CCC(=O)NC1=O)C2=O (stereo not drawn) [1,3-dioxo-2-(2,6-dioxopiperidin-3-yl)-4-aminoisoindoline]
- miR-130a expression change (expression array) [1]: upregulated
- miR-146b expression change (expression array) [1]: upregulated
- miR-143 expression change (Namalwa cells [2]): upregulation
- miR-145 expression change (Namalwa cells [2]): upregulation
- miR-146b expression (qRT-PCR) compared to DMSO control (CD34+ cells; FIG. 1A): upregulation
- miR-130a expression (qRT-PCR) compared to DMSO control (CD34+ cells; FIG. 1B): upregulation

SMILES: Nc1cccc2c1CN(C1CCC(=O)NC1=O)C2=O (stereo not drawn) [Form E, 3-(4-amino-1-oxo-1,3 dihydro-isoindol-2-yl)-piperidene-2,6-dione]
- stability of polymorphic form in aqueous solvent systems [3]: most stable form

SMILES: Nc1cccc2c1CN(C1CCC(=O)NC1=O)C2=O (stereo not drawn) [lenalidomide, 1-oxo-2-(2,6-dioxopiperidin-3-yl)-4-aminoisoindoline]
- miR-204 Fold Increase (H929 cells; [5]): 1.75 fold
- miR-424 Fold Increase (H929 cells; [5]): 1.50 fold
- miR-503 Fold Increase (H929 cells; [5]): 1.61 fold
- miR-204 Fold Increase (H929 cells; [6]): 2.20 fold
- miR-424 Fold Increase (H929 cells; [6]): 2.08 fold
- miR-503 Fold Increase (H929 cells; [6]): 2.37 fold
- miR-204 Fold Increase (H929 cells; [7]): 2.00 fold
- miR-424 Fold Increase (H929 cells; [7]): 2.10 fold
- miR-503 Fold Increase (H929 cells; [7]): 2.44 fold
- miR-204 Fold Increase (H929 cells; [8]): 2.61 fold
- miR-424 Fold Increase (H929 cells; [8]): 1.71 fold
- miR-503 Fold Increase (H929 cells; [8]): 1.89 fold
- miR-204 Fold Increase (H929 cells; [9]): 4.30 fold
- miR-424 Fold Increase (H929 cells; [9]): 3.08 fold
- miR-503 Fold Increase (H929 cells; [9]): 3.80 fold
- miR-204 Fold Increase (H929 cells; [10]): 4.45 fold
- miR-424 Fold Increase (H929 cells; [10]): 3.36 fold
- miR-503 Fold Increase (H929 cells; [10]): 4.05 fold
- miR-204 expression change (H929 cells; [11]): increase in expression in a dose dependent manner
- miR-424 expression change (H929 cells; [11]): increase in expression in a dose dependent manner
- miR-503 expression change (H929 cells; [11]): increase in expression in a dose dependent manner
- miR-143 expression change (HL60 cells; [12]): upregulated
- miR-145 expression change (HL60 cells; [12]): upregulated
- miR-99b expression change (HL60 cells; [13]): upregulated
- miR-125a expression change (HL60 cells; [13]): upregulated
- miR-146b expression change (HL60 cells; [13]): upregulated
- miR-99b Fold Increase (HL60 cells; [5]): 1.81 fold
- miR-125a Fold Increase (HL60 cells; [5]): 1.56 fold
- miR-143 Fold Increase (HL60 cells; [5]): 1.42 fold
- miR-145 Fold Increase (HL60 cells; [5]): 1.33 fold
- miR-146b Fold Increase (HL60 cells; [5]): 2.28 fold
- miR-99b Fold Increase (HL60 cells; [6]): 2.37 fold
- miR-125a Fold Increase (HL60 cells; [6]): 1.93 fold
- miR-143 Fold Increase (HL60 cells; [6]): 1.56 fold
- miR-145 Fold Increase (HL60 cells; [6]): 1.62 fold
- miR-146b Fold Increase (HL60 cells; [6]): 2.99 fold
- miR-99b Fold Increase (HL60 cells; [7]): 2.53 fold
- miR-125a Fold Increase (HL60 cells; [7]): 2.04 fold
- miR-143 Fold Increase (HL60 cells; [7]): 1.63 fold
- miR-145 Fold Increase (HL60 cells; [7]): 1.77 fold
- miR-146b Fold Increase (HL60 cells; [7]): 3.29 fold
- miR-99b Fold Increase (HL60 cells; [8]): 1.99 fold
- miR-125a Fold Increase (HL60 cells; [8]): 1.72 fold
- miR-143 Fold Increase (HL60 cells; [8]): 1.96 fold
- miR-145 Fold Increase (HL60 cells; [8]): 1.89 fold
- miR-146b Fold Increase (HL60 cells; [8]): 4.38 fold
- miR-99b Fold Increase (HL60 cells; [9]): 2.45 fold
- miR-125a Fold Increase (HL60 cells; [9]): 2.05 fold
- miR-143 Fold Increase (HL60 cells; [9]): 2.40 fold
- miR-145 Fold Increase (HL60 cells; [9]): 2.27 fold
- miR-146b Fold Increase (HL60 cells; [9]): 7.16 fold
- miR-99b Fold Increase (HL60 cells; [10]): 2.69 fold
- miR-125a Fold Increase (HL60 cells; [10]): 2.24 fold
- miR-143 Fold Increase (HL60 cells; [10]): 2.25 fold
- miR-145 Fold Increase (HL60 cells; [10]): 2.34 fold
- miR-146b Fold Increase (HL60 cells; [10]): 7.07 fold
- miR-143 expression change (Namalwa cells [4]; [14]): upregulation
- miR-145 expression change (Namalwa cells [4]; [14]): upregulation
- miR-143 Fold Increase (Namalwa cells [4]; [15]): 2.29 fold
- miR-145 Fold Increase (Namalwa cells [4]; [15]): 2.34 fold
- miR-143 Fold Increase (Namalwa cells [4]; [16]): 3.81 fold
- miR-145 Fold Increase (Namalwa cells [4]; [16]): 4.16 fold
- miR-143 Fold Increase (Namalwa cells [4]; [17]): 4.69 fold
- miR-145 Fold Increase (Namalwa cells [4]; [17]): 4.96 fold
- miR-143 Fold Increase (Namalwa cells [4]; [18]): 2.31 fold
- miR-145 Fold Increase (Namalwa cells [4]; [18]): 2.53 fold
- miR-143 Fold Increase (Namalwa cells [4]; [19]): 4.68 fold
- miR-145 Fold Increase (Namalwa cells [4]; [19]): 5.12 fold
